# Test results published in ChEMBL document CHEMBL2321798, “Polyamino geranic derivatives as new chemosensitizers to combat antibiotic resistant gram-negative bacteria” (Bioorg Med Chem, 2013).
# Active and inactive are the calls of the source. The rule behind the calls is not given here. Residues, ends and D or L forms follow the SMILES beside them. *: point of attachment. βNA = c1ccc2cc(N*)ccc2c1
# Experiments:
# Salmonella typhimurium [1] = experiment: Antibacterial activity against Salmonella enterica Typhimurium BN10055 harboring deltaacrB after 18 hrs by broth dilution method; format: functional, Salmonella enterica subsp. enterica serovar Typhimurium; settings: BN10055, 18 h
# Salmonella typhimurium [2] = experiment: Antibacterial activity against Salmonella enterica Typhimurium BN10055 after 18 hrs by broth dilution method; format: functional, Salmonella enterica subsp. enterica serovar Typhimurium; settings: BN10055, 18 h
# Klebsiella aerogenes [3] = experiment: Antibacterial activity against Enterobacter aerogenes Ea289 after 18 hrs by broth dilution method; format: functional; settings: Ea289, 18 h
# Klebsiella aerogenes [4] = experiment: Antibacterial activity against Enterobacter aerogenes Ea294 harboring Ea289deltaacrB after 18 hrs by broth dilution method; format: functional; settings: Ea294, 18 h
# Salmonella typhimurium [5] = experiment: Reduction of multidrug-resistant in Salmonella enterica Typhimurium BN10055 harboring deltaacrB assessed as ratio of nalidixic acid MIC to nalidixic acid MIC in presence of compound by micro-broth dilution method; format: functional, organism-based; settings: Salmonella enterica subsp. enterica serovar Typhimurium
# Salmonella typhimurium [6] = experiment: Reduction of multidrug-resistant in Salmonella enterica Typhimurium BN10055 assessed as ratio of chloramphenicol MIC to chloramphenicol MIC in presence of compound at 75 uM by micro-broth dilution method; format: functional, Salmonella enterica subsp. enterica serovar Typhimurium
# Salmonella typhimurium [7] = experiment: Reduction of multidrug-resistant in Salmonella enterica Typhimurium BN10055 harboring deltaacrB assessed as ratio of chloramphenicol MIC to chloramphenicol MIC in presence of compound by micro-broth dilution method; format: functional, organism-based; settings: Salmonella enterica subsp. enterica serovar Typhimurium
# Klebsiella aerogenes [8] = experiment: Reduction of multidrug-resistant in Enterobacter aerogenes Ea294 harboring Ea289deltaacrB assessed as ratio of chloramphenicol MIC to chloramphenicol MIC in presence of compound by micro-broth dilution method; format: functional, organism-based
# Klebsiella aerogenes [9] = experiment: Reduction of multidrug-resistant in Enterobacter aerogenes Ea294 harboring Ea289deltaacrB assessed as ratio of nalidixic acid MIC to nalidixic acid MIC in presence of compound by micro-broth dilution method; format: functional, organism-based
# Klebsiella aerogenes [10] = experiment: Reduction of multidrug-resistant in Enterobacter aerogenes Ea289 assessed as ratio of nalidixic acid MIC to nalidixic acid MIC in presence of compound at 75 uM by micro-broth dilution method; format: functional
# Salmonella typhimurium [11] = experiment: Reduction of multidrug-resistant in Salmonella enterica Typhimurium BN10055 assessed as ratio of nalidixic acid MIC to nalidixic acid MIC in presence of compound at 75 uM by micro-broth dilution method; format: functional, Salmonella enterica subsp. enterica serovar Typhimurium
# Klebsiella aerogenes [12] = experiment: Reduction of multidrug-resistant in Enterobacter aerogenes Ea289 assessed as ratio of chloramphenicol MIC to chloramphenicol MIC in presence of compound at 75 uM by micro-broth dilution method; format: functional
# CHO = experiment: Cytotoxicity against CHO cells; format: cell-based; settings: Cricetulus griseus
# [13] = target: T1, AcrB protein (Klebsiella aerogenes) (UniProt Q9AEG1); experiment: Inhibition of AcrB in Enterobacter aerogenes Ea289 assessed as glucose-induced 1,2' dinaphthylamine efflux after 18 hrs
# T1 sequence (whole entry): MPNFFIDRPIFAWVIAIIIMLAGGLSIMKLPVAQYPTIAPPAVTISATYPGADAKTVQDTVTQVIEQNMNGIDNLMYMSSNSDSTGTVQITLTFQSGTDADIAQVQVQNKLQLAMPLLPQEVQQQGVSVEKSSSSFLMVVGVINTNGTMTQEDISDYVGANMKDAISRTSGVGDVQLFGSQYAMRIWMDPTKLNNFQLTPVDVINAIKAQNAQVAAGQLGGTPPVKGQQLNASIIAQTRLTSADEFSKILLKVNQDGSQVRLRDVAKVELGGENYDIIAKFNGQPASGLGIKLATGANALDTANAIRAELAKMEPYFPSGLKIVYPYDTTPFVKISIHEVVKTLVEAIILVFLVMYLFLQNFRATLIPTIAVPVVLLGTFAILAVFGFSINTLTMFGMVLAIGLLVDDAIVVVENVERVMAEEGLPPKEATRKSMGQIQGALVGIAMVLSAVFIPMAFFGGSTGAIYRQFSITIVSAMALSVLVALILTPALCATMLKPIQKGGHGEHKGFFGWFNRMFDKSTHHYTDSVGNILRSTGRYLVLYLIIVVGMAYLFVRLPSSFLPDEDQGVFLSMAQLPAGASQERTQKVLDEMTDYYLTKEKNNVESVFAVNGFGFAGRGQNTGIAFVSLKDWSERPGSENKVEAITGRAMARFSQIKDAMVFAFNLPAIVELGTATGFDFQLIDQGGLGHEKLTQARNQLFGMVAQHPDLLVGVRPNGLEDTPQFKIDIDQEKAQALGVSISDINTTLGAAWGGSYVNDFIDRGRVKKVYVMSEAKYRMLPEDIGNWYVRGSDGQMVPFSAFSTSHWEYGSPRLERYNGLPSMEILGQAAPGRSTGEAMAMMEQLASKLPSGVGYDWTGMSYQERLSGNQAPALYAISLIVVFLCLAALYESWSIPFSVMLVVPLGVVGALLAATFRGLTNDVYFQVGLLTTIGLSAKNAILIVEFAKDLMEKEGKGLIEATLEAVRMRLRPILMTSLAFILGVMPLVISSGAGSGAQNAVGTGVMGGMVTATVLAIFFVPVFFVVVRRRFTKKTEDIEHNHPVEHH
# Klebsiella aerogenes [14] = experiment: Reduction of multidrug-resistant in Enterobacter aerogenes Ea289 assessed as ratio of nalidixic acid MIC to nalidixic acid MIC in presence of compound at 38 uM by micro-broth dilution method; format: functional
# Salmonella typhimurium [15] = experiment: Reduction of multidrug-resistant in Salmonella enterica Typhimurium BN10055 assessed as ratio of nalidixic acid MIC to nalidixic acid MIC in presence of compound at 38 uM by micro-broth dilution method; format: functional, Salmonella enterica subsp. enterica serovar Typhimurium
# Salmonella typhimurium [16] = experiment: Reduction of multidrug-resistant in Salmonella enterica Typhimurium BN10055 assessed as ratio of chloramphenicol MIC to chloramphenicol MIC in presence of compound at 38 uM by micro-broth dilution method; format: functional, Salmonella enterica subsp. enterica serovar Typhimurium
# Klebsiella aerogenes [17] = experiment: Reduction of multidrug-resistant in Enterobacter aerogenes Ea289 assessed as ratio of chloramphenicol MIC to chloramphenicol MIC in presence of compound at 38 uM by micro-broth dilution method; format: functional
SMILES,MIC (Salmonella typhimurium [1]) [µM],MIC (Salmonella typhimurium [2]) [µM],MIC (Klebsiella aerogenes [3]) [µM],MIC (Klebsiella aerogenes [4]) [µM],also measured
CC[C@H]1OC(=O)[C@H](C)[C@@H](O[C@H]2C[C@@](C)(OC)[C@@H](O)[C@H](C)O2)[C@H](C)[C@@H](O[C@@H]2O[C@H](C)C[C@H](N(C)C)[C@H]2O)[C@](C)(O)C[C@@H](C)C(=O)[C@H](C)[C@@H](O)[C@]1(C)O [ERYTHROMYCIN],55,350,350,110,
CCn1cc(C(=O)O)c(=O)c2ccc(C)nc21 [NALIDIXIC ACID],275,17600,17600,4400,
O=C(N[C@H](CO)[C@H](O)c1ccc([N+](=O)[O-])cc1)C(Cl)Cl [CHLORAMPHENICOL],200,3200,3200,200,
CC(C)=CCC/C(C)=C/C(=O)NCCCN1CCOCC1,,> 250,> 250,> 250,Activity (Salmonella typhimurium [5]): inactive; Ratio (Salmonella typhimurium [6]): 1; Activity (Salmonella typhimurium [7]): inactive; Activity (Klebsiella aerogenes [8]): inactive; Activity (Klebsiella aerogenes [9]): inactive; Ratio (Klebsiella aerogenes [10]): 1; Ratio (Salmonella typhimurium [11]): 1; Ratio (Klebsiella aerogenes [12]): 1; IC50 (CHO): > 150 µM
CC(C)=CCC/C(C)=C/C(=O)NCCCNCCCCNCCCN,,,,,inhibition [13]: Dose-dependent effect
N=C(N)NCCC[C@H](NC(=O)[C@@H](N)Cc1ccccc1)C(=O)Nc1ccc2ccccc2c1 [PABETAN] (H-Phe-Arg-βNA),150,1220,2430,150,Ratio (Klebsiella aerogenes [14]): 8; Ratio (Salmonella typhimurium [15]): 64; Ratio (Salmonella typhimurium [16]): 8; Ratio (Klebsiella aerogenes [17]): 16
C[C@H]1c2cccc(O)c2C(=O)C2=C(O)[C@]3(O)C(=O)C(C(N)=O)=C(O)[C@@H](N(C)C)[C@@H]3[C@@H](O)[C@@H]21 [DOXYCYCLINE],4.5,144,72,2.25,
